Measurements: the supplement of paper PMC10307832

Tests used:
Assay in all cases: relative viability (nuclei count vs DMSO), 5 days (fraction); higher = more cells survive
NCI-H1651 = tested on: NCI-H1651
How it was run: (§1)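 A single step with final 0.05% Triton X-100, 1% formaldehyde and 1 ug/ml Hoechst fixed the cells and stained nuclei 5 days after treatment. Lung cancer cell lines in 1536-well plates had been treated by pin tool the day after seeding with one drug alone or a fixed anchor-drug dose plus five library-drug doses (not always all listed) in √10 steps, and nuclei were counted on 4× images. Relative viability is the ratio of nuclei in treated wells to nuclei in vehicle wells, taken as the median of duplicate plates.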

NCI-H520 = tested on: NCI-H520
How it was run: as §1

RERF-LC-KJ = tested on: RERF-LC-KJ
How it was run: as §1

NCI-H1703 = tested on: NCI-H1703
How it was run: as §1

A549 = tested on: A549
How it was run: as §1

NCI-H1299 = tested on: NCI-H1299
How it was run: as §1

NCI-H1623 = tested on: NCI-H1623
How it was run: as §1

Calu-6 = tested on: Calu-6
How it was run: as §1

EBC-1 = tested on: EBC-1
How it was run: as §1

IA-LM = tested on: IA-LM
How it was run: as §1

NCI-H1648 = tested on: NCI-H1648
How it was run: as §1

NCI-H522 = tested on: NCI-H522
How it was run: as §1

`O=C(O)c1ccc(-c2c[nH]c3ncc(-c4ccccc4)cc23)cc1C1CCCC1` + COc1cc2c(Oc3ccc(NC(=O)C4(C(=O)Nc5ccc(F)cc5)CC4)cc3F)ccnc2cc1OCCCN1CCOCC1 [Foretinib] (partner 0.25 µM) showed a relative viability (NCI-H1651; first compound 0.04 µM) of 0.786, a relative viability (NCI-H1651; first compound 0.1265 µM) of 0.806 and a relative viability (NCI-H1651; first compound 0.4 µM) of 0.792. The relative viability (NCI-H1651; first compound 1.265 µM) was 0.607, the relative viability (NCI-H520; first compound 0.04 µM) was 0.687 and the relative viability (NCI-H520; first compound 0.1265 µM) was 0.923. For the same compound, the relative viability (NCI-H520; first compound 0.4 µM) was 0.78, the relative viability (NCI-H520; first compound 1.265 µM) was 0.717 and the relative viability (RERF-LC-KJ; first compound 0.04 µM) was 0.86. The relative viability (RERF-LC-KJ; first compound 0.1265 µM) was 0.865, the relative viability (RERF-LC-KJ; first compound 0.4 µM) was 0.933 and the relative viability (RERF-LC-KJ; first compound 1.265 µM) was 0.837. It also gave a relative viability (NCI-H1703; first compound 0.04 µM) of 0.381, a relative viability (NCI-H1703; first compound 0.1265 µM) of 0.313 and a relative viability (NCI-H1703; first compound 0.4 µM) of 0.348. The relative viability (NCI-H1703; first compound 1.265 µM) was 0.372, the relative viability (A549; first compound 0.04 µM) was 0.944 and the relative viability (A549; first compound 0.1265 µM) was 1.07. For the same compound, the relative viability (A549; first compound 0.4 µM) was 1.07, the relative viability (A549; first compound 1.265 µM) was 0.628 and the relative viability (NCI-H1299; first compound 0.04 µM) was 1.12. The relative viability (NCI-H1299; first compound 0.1265 µM) was 1.14, the relative viability (NCI-H1299; first compound 0.4 µM) was 1.04 and the relative viability (NCI-H1299; first compound 1.265 µM) was 0.956. For the same compound, the relative viability (NCI-H1623; first compound 0.04 µM) was 0.859, the relative viability (NCI-H1623; first compound 0.1265 µM) was 0.747 and the relative viability (NCI-H1623; first compound 0.4 µM) was 0.835. For the same compound, the relative viability (NCI-H1623; first compound 1.265 µM) was 0.798, the relative viability (Calu-6; first compound 0.04 µM) was 0.872 and the relative viability (Calu-6; first compound 0.1265 µM) was 0.904. It also gave a relative viability (Calu-6; first compound 0.4 µM) of 0.815, a relative viability (Calu-6; first compound 1.265 µM) of 0.706 and a relative viability (EBC-1; first compound 0.04 µM) of 0.112. The relative viability (EBC-1; first compound 0.1265 µM) was 0.123, the relative viability (EBC-1; first compound 0.4 µM) was 0.119 and the relative viability (EBC-1; first compound 1.265 µM) was 0.101. For the same compound, the relative viability (IA-LM; first compound 0.04 µM) was 1.23, the relative viability (IA-LM; first compound 0.1265 µM) was 1.25 and the relative viability (IA-LM; first compound 0.4 µM) was 1.15. The relative viability (IA-LM; first compound 1.265 µM) was 0.864.
Compound `O=C(O)c1ccc(-c2c[nH]c3ncc(-c4ccccc4)cc23)cc1C1CCCC1` + COc1cccc2cc(-c3nc([C@H]4CC[C@H](C(=O)O)CC4)n4ncnc(N)c34)[nH]c12 [OSI-027] (partner 0.5 µM) has a relative viability (NCI-H1648; first compound 0.04 µM) of 0.245, a relative viability (NCI-H1648; first compound 0.1265 µM) of 0.246 and a relative viability (NCI-H1648; first compound 0.4 µM) of 0.254. It also gave a relative viability (NCI-H1648; first compound 1.265 µM) of 0.239, a relative viability (NCI-H1651; first compound 0.04 µM) of 0.659 and a relative viability (NCI-H1651; first compound 0.1265 µM) of 0.715. It also gave a relative viability (NCI-H1651; first compound 0.4 µM) of 0.67, a relative viability (NCI-H1651; first compound 1.265 µM) of 0.583 and a relative viability (NCI-H520; first compound 0.04 µM) of 0.23. For the same compound, the relative viability (NCI-H520; first compound 0.1265 µM) was 0.269, the relative viability (NCI-H520; first compound 0.4 µM) was 0.336 and the relative viability (NCI-H520; first compound 1.265 µM) was 0.242. It also gave a relative viability (RERF-LC-KJ; first compound 0.04 µM) of 0.561, a relative viability (RERF-LC-KJ; first compound 0.1265 µM) of 0.598 and a relative viability (RERF-LC-KJ; first compound 0.4 µM) of 0.582. It also gave a relative viability (RERF-LC-KJ; first compound 1.265 µM) of 0.527, a relative viability (NCI-H1623; first compound 0.04 µM) of 0.4 and a relative viability (NCI-H1623; first compound 0.1265 µM) of 0.455. It also gave a relative viability (NCI-H1623; first compound 0.4 µM) of 0.449, a relative viability (NCI-H1623; first compound 1.265 µM) of 0.432 and a relative viability (NCI-H522; first compound 0.04 µM) of 0.756. For the same compound, the relative viability (NCI-H522; first compound 0.1265 µM) was 0.74, the relative viability (NCI-H522; first compound 0.4 µM) was 0.56 and the relative viability (NCI-H522; first compound 1.265 µM) was 0.775.
`O=C(O)c1ccc(-c2c[nH]c3ncc(-c4ccccc4)cc23)cc1C1CCCC1` + Cc1cc(Nc2cc(N3CCN(C)CC3)nc(Sc3ccc(NC(=O)C4CC4)cc3)n2)n[nH]1 [Tozasertib] (partner 0.1 µM) gave a relative viability (NCI-H1648; first compound 0.04 µM) of 0.545, a relative viability (NCI-H1648; first compound 0.1265 µM) of 0.635 and a relative viability (NCI-H1648; first compound 0.4 µM) of 0.439. For the same compound, the relative viability (NCI-H1648; first compound 1.265 µM) was 0.378, the relative viability (NCI-H1651; first compound 0.04 µM) was 0.689 and the relative viability (NCI-H1651; first compound 0.1265 µM) was 0.708. It also gave a relative viability (NCI-H1651; first compound 0.4 µM) of 0.559, a relative viability (NCI-H1651; first compound 1.265 µM) of 0.481 and a relative viability (NCI-H520; first compound 0.04 µM) of 0.504. The relative viability (NCI-H520; first compound 0.1265 µM) was 0.408, the relative viability (NCI-H520; first compound 0.4 µM) was 0.384 and the relative viability (NCI-H520; first compound 1.265 µM) was 0.483. It also gave a relative viability (RERF-LC-KJ; first compound 0.04 µM) of 0.531, a relative viability (RERF-LC-KJ; first compound 0.1265 µM) of 0.422 and a relative viability (RERF-LC-KJ; first compound 0.4 µM) of 0.407. It also gave a relative viability (RERF-LC-KJ; first compound 1.265 µM) of 0.275, a relative viability (NCI-H1623; first compound 0.04 µM) of 0.421 and a relative viability (NCI-H1623; first compound 0.1265 µM) of 0.488. The relative viability (NCI-H1623; first compound 0.4 µM) was 0.481, the relative viability (NCI-H1623; first compound 1.265 µM) was 0.398 and the relative viability (NCI-H522; first compound 0.04 µM) was 0.537. It also gave a relative viability (NCI-H522; first compound 0.1265 µM) of 0.654, a relative viability (NCI-H522; first compound 0.4 µM) of 0.579 and a relative viability (NCI-H522; first compound 1.265 µM) of 0.498.
